Assay results from patent publication US20120095062A1, “TRICYCLIC COMPOUNDS, COMPOSITIONS, AND METHODS” (Pfizer Inc., priority 2007, published 2012).
Structures can show the parent of a compound that is named as a salt. Where two headings read alike, the source gives them in different places.

How the values were obtained:
[1] = system: IL-6, Human A549 lung epithelial cells; assay: IL-6 inhibition in IL-1β-stimulated A549 cells; format: cell-based; conditions: for IC50: A549, 20 h, A549 cells, 1 ng/mL IL-1β, 20 hours, read-out: IL-6 IC50; for inhibition: A549, A549 cells, Prednisolone (1 μM) = 100% inhibition control
Protocol: Human A549 lung epithelial cells (American Type Culture Collection, Rockville, Md.) were cultured in Kaighn's F-12K medium with penicillin-streptomycin (10 U/mL) and 10% heat-inactivated fetal bovine serum (all from Invitrogen, Grand Island, N.Y.). A549 cells were plated at a density of 30,000 cells/well in 96-well plates and incubated overnight at 37° C. and with 5% CO2. The cells were serum-starved by replacing the growth medium with serum-free Kaighn's F-12K medium with penicillin-streptomycin (10 U/mL) and, again, incubating overnight at 37° C. and with 5% CO2. On the third day, the medium was replaced with fresh serum-free medium and the cells were incubated with or without compound (vehicle was DMSO at 0.1% maximum concentration) for approximately 1 hour and then stimulated with 1 ng/mL recombinant human IL-1β (R&D Systems, Minneapolis, Minn.) for 20 hours at 37° C. and with 5% CO2. Cell supernatants were collected for determination of IL-6 levels using MSD (Meso Scale Discovery, Gaithersburg, Md.) 96-well Single Spot plates as per the manufacturer's instructions. Plates were read with an MSD Sector Imager 6000. […] Vehicle was used to define the 0% inhibition control. Percent inhibition for each compound concentration, relative to these controls, was calculated using Excel (Microsoft, Redmond, Wash.). IC50 values were generated using GraFit 5.0 data analysis software (Erithacus Software Ltd., Surrey, UK).

TNFα, U937 cells = assay: TNFα inhibition in LPS-stimulated differentiated U937 cells; format: cell-based; design: inhibition: dose or concentration left out as unconfirmed; conditions: Homo sapiens
Protocol: Cells were differentiated to a monocyte/macrophage phenotype with phorbol 12-myristate 13-acetate (Sigma-Aldrich, St. Louis, Mo.), 20 ng/mL, overnight. […] Following recovery, the cells were scraped, counted, and plated in accordance to the experimental design prior to stimulation with LPS, as described below. U937 cells were differentiated and plated at a density of 200,000 cells/well in 96-well plates. […] Louis, Mo.) for four hours at 37° C. and with 5% CO2. Cell supernatants were collected for determination of TNFα levels using an in-house sandwich-type ELISA. Mouse anti-human TNFα monoclonal antibody (clone 28401.111) and biotinylated goat anti-human TNFα (R&D Systems, Minneapolis, Minn.) were used as the capture and detection antibodies, respectively. Streptavidin-horseradish peroxidase (HRP) (R&D Systems, Minneapolis, Minn.) and K-Blue Substrate/Red Stop (Neogen, Lexington, Ky.) were used as the detection system. Absorbance was measured at 650 nm. TNFα concentrations were interpolated from a human TNFα recombinant protein (R&D Systems, Minneapolis, Minn.) standard curve using a four parameter logistics model by Magellan 4.11 data analysis software (Tecan, Durham, N.C.). […] Vehicle was used to define the 0% inhibition control. Percent inhibition for each concentration of compound, relative to these controls, was calculated using Excel (Microsoft, Redmond, Wash.).

IFNγ = assay: Ex vivo LPS-stimulated human whole blood, IFNγ production; format: cell-based; conditions: mean
Protocol: (§1) Venous blood from human donors was collected as 10 ml aliquots in tubes containing sodium heparin (BD Vacutainer from Becton Dickinson and Company, Franklin Lakes, N.Y.). Blood was added to sterile polystyrene round bottom 96-well tissue culture plates (Corning Costar) at 100 μl/well, omitting the outside wells. Media (RPMI Medium 1640 with L-glutamine, Invitrogen Corporation, Carlsbad, Calif.) was added to the blood in 90 μl aliquots for a total volume of 190 μl. Outside wells were filled with 200 μl of media. Blood was placed in a humidified 37° C. incubator with 5% CO2 while compounds were prepared (nearly 60 minutes).
(§2) Compounds were prepared from 10 mM stock solutions in dimethylsulfoxide (DMSO, Sigma-Aldrich). […] Final DMSO and ethanol concentrations in the assay were 0.1% and 1.5%. The samples were gently triturated twice to mix and replaced in the incubator. LPS stock (E. coli serotype 0111:84, Sigma-Aldrich), stored in aliquots of 100 μg/ml in RPMI at −20° C., was diluted 1/50 in RPMI to make a working stock solution. After 60 minutes of incubation, 10 μl of the prepared LPS working stock was added to the blood to a final concentration of 100 ng/ml, omitting wells to be used as negative control. The samples were again gently triturated and the plates incubated overnight for 22 hours. Following incubation, the blood was centrifuged at 1500×g for 5 minutes and the plasma removed to either freeze at −20° C. or assay for cytokine release.
(§3) IL-1β, IFNγ,IL-6, and TNFα protein levels were measured using Meso Scale assay kits (Meso Scale Discovery, Gaithersburg, Md.). Reagents were allowed to come to room temperature. Meso Scale plates were blocked with […] of human plasma/serum assay diluent with gentle shaking for 60 minutes at room temperature. Plates were washed 3× with wash buffer (PBS, Invitrogen Corporation, with 0.05% Tween-20, Sigma-Aldrich). Calibrators for standard curves were prepared in human plasma/serum assay diluent as a 1/5 serial dilution to achieve final concentrations ranging from 50000 pg/ml to 3.2 pg/ml. Samples and calibrators were added at 20 μl/well, then incubated at room temperature with gentle shaking for 90 minutes. Plates were again washed 3 times with wash buffer. Detection antibody was diluted in human plasma/serum antibody diluent to 1 μg/ml and added to the plate at 20 μl/well. Plates were incubated as before for 60 minutes and washed again. Read Buffer T (4×) was diluted 1:1 with mqH2O to 2 times concentration and 150 μl added to each well. Plates were analyzed on the SECTOR Imager 6000 (Meso Scale Discovery) to generate raw signal values.
(§4) IL-1β, IFNγ, IL-6, and TNFα sample values were verified to be within the calibrator standard curves. Individual values were compared to positive and negative controls (vehicle treated blood with LPS and vehicle treated blood without LPS, respectively) to generate % inhibition. Triplicate values were averaged for each donor. The values for two donors were averaged (only one donor was used for IL-1β) and graphed using 4-parameter fit curves in the GraFit 5.0.11 application.

TNFα = assay: Ex vivo LPS-stimulated human whole blood, TNFα production; format: cell-based; conditions: mean
Protocol: as §1, §2, §3
as §4, with “Individual” for “IL-1β, IFNγ, IL-6, and TNFα sample values were verified to be within the calibrator standard curves. Individual”

IL-1β = assay: Ex vivo LPS-stimulated human whole blood, IL-1β production; format: cell-based; conditions: one donor
Protocol: as §1, §2, §3, §4

IL-6 = assay: Ex vivo LPS-stimulated human whole blood, IL-6 production; format: cell-based; conditions: mean
Protocol: as §1, §2, §3, §4

LPS-induced serum TNFα = LPS-induced serum TNFα suppression, 28-day repeat dose mouse model; format: in vivo; conditions: 672 h, mice, oral gavage 28 days
Serum osteocalcin = Serum osteocalcin suppression, 28-day repeat dose mouse model; format: in vivo, mice; conditions: Mus musculus, 672 h; mice, oral gavage 28 days, serum osteocalcin
[2] = system: Mouse Collagen-induced arthritis; assay: Therapeutic mouse collagen-induced arthritis (mCIA) model; format: in vivo; conditions: mice, dosing day 34 through day 49, read-out: Therapeutic mCIA (ED50 dose)
From the text: Mouse Collagen-induced arthritis is a commonly used chronic, preclinical model of rheumatoid arthritis in which joint swelling and bone destruction occur following immunization with type II collagen. Reduction of disease incidence and severity has been shown previously to be predictive of disease-modification and signs and symptoms mitigation, respectively, in a clinical setting.
In the therapeutic mCIA model, induction of disease incidence and severity was synchronized via LPS stimulation. Male […] mice were immunized with 100 ug of bovine type II collagen (bCII) on day 0. All mice received an intraperitoneal injection of 20 μg of LPS on day 28 and disease was allowed to develop through day 34. At day 34, all mice had disease (incidence=100%) with an average severity score of seven. Dosing of compounds was initiated in the therapeutic mode on day 34 and continued through day 49. Different treatments were compared by measuring the decrease in incidence (i.e., resolution of disease) and the decrease in severity of paw swelling over time.

[3] = U-937, 4 h, U937 cells, 100 ng/mL LPS, four hours, read-out: TNFα IC50

## Cc1ncccc1CNC(=O)c1ccc2c(c1)CC[C@@H]1C[C@@](O)(CCC(F)(F)F)CC[C@@]21Cc1ccccc1 [Comparator A, (4βS,7S,8αR)-4β-benzyl-7-hydroxy-N-((2-methylpyridin-3-yl)methyl)-7-(3,3,3-trifluoropropyl)-4β,5,6,7,8,8α,9,10-octahydrophenanthrene-2-carboxamide]
[1]
  IC50: > 36.4 nM
  inhibition: 59.9%
TNFα, U937 cells; U-937
  inhibition: 35%
TNFα, U937 cells; [3]
  IC50: > 1000 nM
IFNγ; 1.371742 nM
  inhibition at 0.00137174 µM: 18.1%
IFNγ; 4.115226 nM
  inhibition at 0.00411523 µM: -1.7%
IFNγ; 12.34568 nM
  inhibition at 0.0123457 µM: 0.016%
IFNγ; 37.03704 nM
  inhibition at 0.037037 µM: -9.81%
IFNγ; 111.1111 nM
  inhibition at 0.111111 µM: 8.74%
IFNγ; 333.3333 nM
  inhibition at 0.333333 µM: -6.32%
IFNγ; 1000 nM
  inhibition at 1 µM: 16.5%
IFNγ; 3000 nM
  inhibition at 3 µM: 28%
TNFα; 1.371742 nM
  inhibition at 0.00137174 µM: 18.1%
TNFα; 4.115226 nM
  inhibition at 0.00411523 µM: -0.861%
TNFα; 12.34568 nM
  inhibition at 0.0123457 µM: 0.0309%
TNFα; 37.03704 nM
  inhibition at 0.037037 µM: -4.19%
TNFα; 111.1111 nM
  inhibition at 0.111111 µM: -3.82%
TNFα; 333.3333 nM
  inhibition at 0.333333 µM: -4.61%
TNFα; 1000 nM
  inhibition at 1 µM: -5.44%
TNFα; 3000 nM
  inhibition at 3 µM: -3.04%
IL-1β; 1.371742 nM
  inhibition at 0.00137174 µM: 32%
IL-1β; 4.115226 nM
  inhibition at 0.00411523 µM: 22%
IL-1β; 12.34568 nM
  inhibition at 0.0123457 µM: 22.8%
IL-1β; 37.03704 nM
  inhibition at 0.037037 µM: 17.3%
IL-1β; 111.1111 nM
  inhibition at 0.111111 µM: 8.6%
IL-1β; 333.3333 nM
  inhibition at 0.333333 µM: 12.2%
IL-1β; 1000 nM
  inhibition at 1 µM: 15%
IL-1β; 3000 nM
  inhibition at 3 µM: 16.4%
IL-6; 1.371742 nM
  inhibition at 0.00137174 µM: 1.46%
IL-6; 4.115226 nM
  inhibition at 0.00411523 µM: -4.34%
IL-6; 12.34568 nM
  inhibition at 0.0123457 µM: -1.13%
IL-6; 37.03704 nM
  inhibition at 0.037037 µM: -3.52%
IL-6; 111.1111 nM
  inhibition at 0.111111 µM: -3.5%
IL-6; 333.3333 nM
  inhibition at 0.333333 µM: -2.83%
IL-6; 1000 nM
  inhibition at 1 µM: -0.89%
IL-6; 3000 nM
  inhibition at 3 µM: -1.97%
LPS-induced serum TNFα
  ED50: 60 mg/kg
Serum osteocalcin
  ED50: 37 mg/kg

## Cc1cnc(NC(=O)c2ccc3c(c2)CC[C@@H]2C[C@@](O)(C(F)(F)F)CC[C@@]32Cc2ccccc2)c(C)n1 [Comparator B, (4βS,7R,8αR)-4β-benzyl-N-(3,5-dimethylpyrazin-2-yl)-7-hydroxy-7-(trifluoromethyl)-4β,5,6,7,8,8α,9,10-octahydrophenanthrene-2-carboxamide]
[1]
  IC50: 4 nM
  inhibition: 75.8%
[2]
  ED50: 2.9 mg/kg
LPS-induced serum TNFα
  ED50: 1.64 mg/kg
Serum osteocalcin
  ED50: 2.39 mg/kg

## Cc1ccncc1NC(=O)c1ccc2c(c1)CC[C@@H]1C[C@@](O)(C(F)(F)F)CC[C@@]21Cc1ccccc1 [Comparator D, (4βS,7R,8αR)-4β-benzyl-7-hydroxy-N-(4-methylpyridin-3-yl)-7-(trifluoromethyl)-4β,5,6,7,8,8α,9,10-octahydrophenanthrene-2-carboxamide]
[1]
  IC50: 1.3 nM
  inhibition: 79.8%
LPS-induced serum TNFα
  ED50: 1.47 mg/kg
Serum osteocalcin
  ED50: 1.18 mg/kg

## Cc1c(NC(=O)c2ccc3c(c2)CC[C@@H]2C[C@@](O)(C(F)(F)F)CC[C@@]32Cc2ccccc2)ccc[n+]1[O-] [Comparator G]
[1]
  IC50: 2.1 nM
  inhibition: 80.1%
LPS-induced serum TNFα
  ED50: 2.9 mg/kg
Serum osteocalcin
  ED50: 1.12 mg/kg

## Cc1ncccc1NC(=O)c1ccc2c(c1)CC[C@@H]1C[C@@](O)(C(F)F)CC[C@@]21Cc1ccccc1 [Comparator H, (4βS,7R,8αR)-4β-benzyl-7-(difluoromethyl)-7-hydroxy-N-(2-methylpyridin-3-yl)-4β,5,6,7,8,8α,9,10-octahydrophenanthrene-2-carboxamide]
[1]
  IC50: 4.3 nM
  inhibition: 64.9%
LPS-induced serum TNFα
  ED50: 0.23 mg/kg
Serum osteocalcin
  ED50: 0.51 mg/kg

## Cc1ncccc1NC(=O)c1ccc2c(c1)CC[C@@H]1C[C@@](O)(C(F)(F)F)CC[C@@]21Cc1ccccc1 [Example 1 HCL salt, (4βS,7R,8αR)-4β-benzyl-7-hydroxy-N-(2-methylpyridin-3-yl)-7-(trifluoromethyl)-4β,5,6,7,8,8α,9,10-octahydrophenanthrene-2-carboxamide]
[1]
  IC50: 0.4 nM
  inhibition: 76.9%
TNFα, U937 cells; U-937
  inhibition: 77.1%
TNFα, U937 cells; [3]
  IC50: 92.1 nM
TNFα, U937 cells; U-937, value in brackets, footnote a: additional results that were found, read-out: TNFα IC50 (nM), additional result
  IC50: 28.8 nM

## Cc1ncccc1NC(=O)c1ccc2c(c1)CC[C@@H]1C[C@@](OP(=O)(O)O)(C(F)(F)F)CC[C@@]21Cc1ccccc1 [Example 2, (2R,4αS,10αR)-4α-benzyl-7-((2-methylpyridin-3-yl)carbamoyl)-2-(trifluoromethyl)-1,2,3,4,4α,9,10α-octahydrophenanthren-2-yl dihydrogen phosphate]
[1]
  IC50: 60 nM
